# Source: US5532366A, “Heterocyclic amides” (Zeneca Limited, priority 1992, dated 1996)
# Biological target: T1, human leukocyte elastase (HLE) (Homo sapiens, UniProt P08246)
# T1 sequence (P08246 30-267): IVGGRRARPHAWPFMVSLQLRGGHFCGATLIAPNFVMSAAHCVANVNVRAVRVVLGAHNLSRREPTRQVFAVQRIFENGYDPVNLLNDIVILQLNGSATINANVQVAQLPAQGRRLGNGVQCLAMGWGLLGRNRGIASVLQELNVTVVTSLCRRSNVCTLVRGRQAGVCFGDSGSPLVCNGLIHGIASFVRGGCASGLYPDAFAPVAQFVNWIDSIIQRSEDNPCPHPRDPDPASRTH
# Test: Inhibition of human leukocyte elastase (HLE) on methoxy-succinyl-alanyl-alanyl-prolyl-valine-p-nitroanilide, Ki (Inhibition Measurements)
# Format: biochemical
# Conditions: kinetic determination of dissociation constant; substrate methoxy-succinyl-alanyl-alanyl-prolyl-valine-p-nitroanilide
# Description: The potency of a Compound to act as an inhibitor of human leukocyte elastase (HLE) on the low molecular weight peptide substrate methoxy-succinyl-alanyl-alanyl-prolyl-valine-p-nitroanilide is determined as described in U.S. Pat. No. 4,910,190. The potency of an inhibitor is evaluated by obtaining a kinetic determination of the dissociation constant, Ki, of the complex formed from the interaction of the inhibitor with HLE. If a Compound is found to be a "slow-binding" inhibitor of HLE, special methods of analysis to accurately determine Ki values for the inhibition of HLE are carried out as described in U.S. Pat. No. 4,910,190.
smiles,measurement,value
CC(C)C(NC(=O)Cn1ccc2c(=O)n(CC(=O)OCc3ccccc3)c(=O)[nH]c2c1=O)C(=O)C(F)(F)F (stereo not shown) [Example 13],Ki,44 nM
